Patent publication US20040220268A1, “Compound that directly stimulates phospholipase C activity” (priority 2003, published 2004)

Tested on: human neutrophils
Test: Cross-desensitization of [Ca2+]i responses in neutrophils
Assay type: cell-based
Conditions: extracellular calcium free
Experimental: FIG. 5 describes cross-desensitization experiments. Fura-2-loaded neutrophils were pretreated with m-3M3FBS (25 μM) and then rechallenged with ATP (500 μM) or WKYMVm (1 μM) in this or in the reverse order in the extracellular calcium free condition. Changes in the 340 nm/380 nm excitation ratio were monitored, and converted to [Ca^2+]i levels. The results shown are representative of three independent experiments.
Freshly prepared human neutrophils were incubated in serum free RPMI 1640 medium with 3 μM of fura-2/AM at 37° C. for 30 min with continuous stirring. After washing with serum free RPMI 1640 medium, the cells were suspended in serum free RPMI containing 250 μM of sulfinpyrazone to prevent dye leakage. About 2×10^6 cells were suspended in Ca^2+ free Locke's solution (158.4 mM NaCl, 5.6 mM KCl, 1.2 mM MgCl2, 5 mM HEPES pH 7.3, 10 mM glucose, and 0.2 mM EGTA) for each measurement. Changes in the fluorescence ratio were measured at an emission wavelength of 500 nm for dual excitation wavelengths at 340 nm and 380 nm. The calibration of the fluorescence ratio versus [Ca^2+]i was performed as described by Grynkiewicz (Grynkiewicz et al., 1985).

Cc1cc(C)c(S(=O)(=O)Nc2cccc(C(F)(F)F)c2)c(C)c1 [m-3M3FBS, 2,4,6-Trimethyl-N-(meta 3-trifluoromethyl-phenyl)-benzenesulfonamide]
[Ca2+]i response when given after ATP or WKYMVm (25 μM after ATP 500 μM or WKYMVm 1 μM): elicited still further [Ca^2+]i increases
effect of prestimulation on cellular response to ATP (m-3M3FBS 25 μM, then ATP 500 μM): significantly reduced
effect of prestimulation on cellular response to WKYMVm (m-3M3FBS 25 μM, then WKYMVm 1 μM): significantly reduced
